For the experiment, the target named is Tyrosine-protein kinase JAK1 (Homo sapiens, UniProt P23458). The experiment in a line: In vitro JAK Kinase Assay: The catalytic domains of human JAK1 (a.a. 837-1142), Jak2 (a.a. 828-1132) and Jak3 (a.a. 781-1124) with an N-terminal His tag were expressed using baculovirus in insect cells and purified. The catalytic activity of JAK1, JAK2 or JAK3 was assayed by measuring the phosphorylation of a biotinylated peptide. The phosphorylated peptide was detected by homogenous time resolved fluorescence (HTRF). […] Reactions were carried out at room temperature for 1 hr and then stopped with 20 μL 45 mM EDTA, 300 nM SA-APC, 6 nM Eu-Py20 in assay buffer (Perkin Elmer, Boston, Mass.). Binding to the Europium labeled antibody took place for 40 minutes and HTRF signal was measured on a Fusion plate reader (Perkin Elmer, Boston, Mass.). A general note: TR-FRET usually uses a lanthanide donor and a delayed reading to cut background.

pIC50: −log10 of the molar value.

This note sets out measurements from ChEMBL document CHEMBL5727777, “Piperidin-4-yl azetidine derivatives as JAK1 inhibitors” (2020).

The pIC50 is −log10 of the IC50, conventionally taken in molar units. Low readings indicate a large IC50, high ones a small IC50.

Sequence of Tyrosine-protein kinase JAK1 (P23458 whole entry, the tested form may be a part): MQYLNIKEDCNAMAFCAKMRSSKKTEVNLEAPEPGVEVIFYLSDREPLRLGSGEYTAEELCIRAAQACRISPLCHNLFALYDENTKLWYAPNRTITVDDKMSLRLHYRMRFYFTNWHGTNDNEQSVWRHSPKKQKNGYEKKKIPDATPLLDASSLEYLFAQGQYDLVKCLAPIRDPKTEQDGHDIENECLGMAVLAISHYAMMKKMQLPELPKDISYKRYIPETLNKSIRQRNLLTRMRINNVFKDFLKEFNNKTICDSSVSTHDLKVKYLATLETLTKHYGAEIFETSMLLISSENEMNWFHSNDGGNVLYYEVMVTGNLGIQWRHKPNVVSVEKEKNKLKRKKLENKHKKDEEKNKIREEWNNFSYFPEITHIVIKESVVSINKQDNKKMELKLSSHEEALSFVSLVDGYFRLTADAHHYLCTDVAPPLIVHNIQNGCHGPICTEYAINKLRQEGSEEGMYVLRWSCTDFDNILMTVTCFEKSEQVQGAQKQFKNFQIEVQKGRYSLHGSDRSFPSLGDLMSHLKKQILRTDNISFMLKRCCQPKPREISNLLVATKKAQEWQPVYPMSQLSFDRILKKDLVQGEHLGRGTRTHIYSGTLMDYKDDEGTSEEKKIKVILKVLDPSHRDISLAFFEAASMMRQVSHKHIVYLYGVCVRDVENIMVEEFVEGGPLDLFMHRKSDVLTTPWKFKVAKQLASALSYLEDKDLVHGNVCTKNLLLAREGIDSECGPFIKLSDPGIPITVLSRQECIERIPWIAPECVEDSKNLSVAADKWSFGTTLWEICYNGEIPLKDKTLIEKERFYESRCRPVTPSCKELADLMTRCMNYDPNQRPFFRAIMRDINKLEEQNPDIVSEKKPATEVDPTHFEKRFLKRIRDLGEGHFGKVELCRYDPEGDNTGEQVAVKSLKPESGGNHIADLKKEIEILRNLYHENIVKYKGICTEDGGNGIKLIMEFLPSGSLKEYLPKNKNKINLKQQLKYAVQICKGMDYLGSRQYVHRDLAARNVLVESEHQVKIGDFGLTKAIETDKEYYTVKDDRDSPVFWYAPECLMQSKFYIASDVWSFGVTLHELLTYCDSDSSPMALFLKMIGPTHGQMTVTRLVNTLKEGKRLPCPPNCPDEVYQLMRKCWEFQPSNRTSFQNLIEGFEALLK

For the compound `N#CCC1(n2cc(-c3ncnc4[nH]ccc34)cn2)CN(C2CCN(C(=O)OCC3CCCCC3)CC2)C1`, the negative-log IC50 (pIC50) was > 8.30.
